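In this assay, cells in 96-well plates receive the compound at five concentrations for 48 hours. Endpoints are linearly interpolated between the surrounding concentrations. TGI marks complete inhibition of growth.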 Where a SMILES comes first, the peptide text is derived from it. [ ]: non-standard residue; d: D form. The star is where a group is joined. ξ: configuration not given here. NMeY = CN[C@@H](Cc1ccc(O)cc1)C(=O)O; Cbz = O=C(OCc1ccccc1)*; ξA = CC(N)C(=O)O
Experiments:
Experiment in all cases: growth of human tumour cells (NCI), 48 h
NCI/ADR-RES ovarian = test system: NCI/ADR-RES ovarian
OVCAR-8 ovarian = test system: OVCAR-8 ovarian
RXF 393 renal = test system: RXF 393 renal
PC-3 prostate = test system: PC-3 prostate
CCRF-CEM leukemia = test system: CCRF-CEM leukemia
HCT-116 colon = test system: HCT-116 colon
M14 melanoma = test system: M14 melanoma
OVCAR-3 ovarian = test system: OVCAR-3 ovarian
OVCAR-5 ovarian = test system: OVCAR-5 ovarian
HT29 colon = test system: HT29 colon

| SMILES | TGI (NCI/ADR-RES ovarian) | TGI (OVCAR-8 ovarian) | TGI (RXF 393 renal) | TGI (PC-3 prostate) | TGI (CCRF-CEM leukemia) | TGI (HCT-116 colon) | TGI (M14 melanoma) | TGI (OVCAR-3 ovarian) | TGI (OVCAR-5 ovarian) | TGI (HT29 colon) |
| --- | --- | --- | --- | --- | --- | --- | --- | --- | --- | --- |
| C=C(CCOC)CCC1CCCCC(=C)C1=O (stereo not given) | > 100 µM | > 100 µM | > 100 µM | > 100 µM | > 100 µM | > 100 µM | > 100 µM | > 100 µM | > 100 µM | > 100 µM |
| CCCCC[C@H](O)[C@H](C)C=C1SCCCS1 | > 100 µM | > 100 µM | > 100 µM | > 100 µM | > 100 µM | > 100 µM | > 100 µM | > 100 µM | > 100 µM | > 100 µM |
| O=C1c2ccccc2NC2C(O)c3ccccc3N12 (stereo not given) | > 100 µM | > 100 µM | > 100 µM | > 100 µM | 54.6 µM | > 100 µM | > 100 µM | > 100 µM | > 100 µM | > 100 µM |
| CN(C)c1ccc(/C=C(\NC(=O)c2ccccc2)C(=O)Nc2ccccc2C(=O)NN2C(=O)CSC2c2ccc(N(C)C)cc2)cc1 (stereo not given) | > 100 µM | > 100 µM | > 100 µM | > 100 µM | > 100 µM | > 100 µM | > 100 µM | > 100 µM | > 100 µM | > 100 µM |
| CCCCCCCCCCCCC(=O)NCC(=O)NC(Cc1ccccc1)C(=O)Oc1ccc([N+](=O)[O-])cc1 (stereo not given) | > 100 µM | > 100 µM | > 100 µM | > 100 µM | 68.7 µM | > 100 µM | > 100 µM | > 100 µM | > 100 µM | > 100 µM |
| Cc1[nH]c(=O)nc(N/N=C/c2ccc(Cl)c(Cl)c2)c1C(=O)Nc1ccc(Cl)c(Cl)c1 | > 47.6 µM | 14.8 µM | 32.7 µM | > 51.5 µM | > 23 µM | > 20.5 µM | 15.7 µM | 24.5 µM | > 46.3 µM | > 46.5 µM |
| CCOC(=O)CCC(NC(=O)OCc1ccccc1)C(=O)NNC(=O)OC(C)(C)C (stereo not given) | > 100 µM | > 100 µM | > 100 µM | > 100 µM | > 100 µM | > 100 µM | > 100 µM | > 100 µM | > 100 µM | > 100 µM |
| Cc1cs/c(=N\C(P(=O)(O)O)P(=O)(O)O)n1C | > 100 µM | > 100 µM | > 100 µM | > 100 µM | > 100 µM | > 100 µM | > 100 µM | > 100 µM | > 100 µM | > 100 µM |
| COc1ccc(C[C@@H](C(=O)NCC(N)=O)N(C)C(=O)[C@@H]2CCCN2C(=O)[C@H](CC(C)C)NC(=O)C(C)NC(=O)OCc2ccccc2)cc1 (stereo not given in full) (Cbz-[ξA]LP[NMeY](Me)G-NH2) | > 100 µM | > 100 µM | > 100 µM | > 100 µM | > 100 µM | > 100 µM | > 100 µM | > 100 µM | > 100 µM | > 100 µM |
| CCCCn1cc(C(=O)O)c(=O)c2c3sccc3ccc21 | 43.4 µM | > 100 µM | > 100 µM | > 100 µM | > 100 µM | > 100 µM | > 100 µM | > 100 µM | > 100 µM | > 100 µM |
| CC1(C)OC[C@@H](/C=C\CCO[Si](c2ccccc2)(c2ccccc2)C(C)(C)C)N1C(=O)c1ccccc1 | > 100 µM | > 100 µM | 27.9 µM | > 100 µM | 59.7 µM | 21.4 µM | 32.8 µM | 30.5 µM | 46 µM | 17.3 µM |
| O=C(Nc1cccc2nsnc12)c1cc2c(cc1Cl)Sc1nccn1S2(=O)=O | 42.6 µM | 8.94 µM | 18 µM | 3.64 µM | > 36.6 µM | 6.97 µM | 42.5 µM | 3.47 µM | > 91.6 µM | 7.67 µM |
| CCCCCCCCCCCCOC1C(COCCN2CCCC2)OC2OC(C)(C)OC21 (stereo not given) | 4.37 µM | 3.03 µM | 3.17 µM | 3.16 µM | 5.39 µM | 3.13 µM | 3.25 µM | 3.05 µM | 2.88 µM | 2.98 µM |
| c1ccc2c(c1)CC1c3[nH]c4ccccc4c3CCN21 (stereo not given) | > 10 µM | > 10 µM | > 10 µM | > 10 µM | > 10 µM | > 10 µM | > 10 µM | > 10 µM | > 10 µM | > 10 µM |
| Cc1cc(S(=O)(=O)Nc2n[nH]c(Nc3ccccc3)n2)c(S)cc1Cl | > 10 µM | > 10 µM | > 10 µM | > 10 µM | > 10 µM | > 10 µM | > 10 µM | > 10 µM | > 10 µM | > 10 µM |
| O=C1c2cc3c(cc2CC12Cc1cc4c(cc1C2)CCC4)CCC3 | > 100 µM | > 100 µM | > 100 µM | > 100 µM | > 100 µM | > 100 µM | > 100 µM | > 100 µM | > 100 µM | > 100 µM |
| c1ccc2c3c(ccc2c1)CSCc1ccc2ccccc2c1-3 | > 100 µM | > 100 µM | > 100 µM | > 100 µM | > 100 µM | > 100 µM | > 100 µM | > 100 µM | > 100 µM | > 100 µM |

Reference: PubChem BioAssay (NCI)
